Measurements as given in paper PMC11345841, “Exploring 2-Sulfonylpyrimidine Warheads as Acrylamide Surrogates for Targeted Covalent Inhibition: A BTK Story” (Journal of Medicinal Chemistry, 2024).
Read-outs that look alike come from different tables or passages of the source.

Key:
PDGFRB = molecular target: T1, PDGFRB (Homo sapiens, UniProt P09619); assay: KINOMEscan ScanTK; format: binding
T1 construct: purchased Eurofins DiscoverX KINOMEscan (scanTK)

BLK = molecular target: T2, BLK (Homo sapiens, UniProt P51451); assay: KINOMEscan ScanTK; format: binding; settings: BLK; for difference in %Control vs reference Ib at 1 µM: read-out: % difference (compound - Ib %Control)
T2 construct: purchased Eurofins DiscoverX KINOMEscan (scanTK)

DDR1 = molecular target: T3, DDR1 (Homo sapiens, UniProt Q08345); assay: KINOMEscan ScanTK; format: binding
T3 construct: purchased Eurofins DiscoverX KINOMEscan (scanTK)

[1] = molecular target: T4, TYK2(JH2domain-pseudokinase) (Homo sapiens, UniProt P29597); assay: KINOMEscan ScanTK; format: binding; settings: for difference in %Control versus Ib at 1 µM: read-out: % difference (compound - Ib %Control)
T4 construct: TYK2(JH2domain-pseudokinase); purchased Eurofins DiscoverX KINOMEscan (scanTK)

EPHB1 = molecular target: T5, EPHB1 (Homo sapiens, UniProt P54762); assay: KINOMEscan ScanTK; format: binding; settings: EPHB1
T5 construct: purchased Eurofins DiscoverX KINOMEscan (scanTK)
T5 sequence (P54762 18-984): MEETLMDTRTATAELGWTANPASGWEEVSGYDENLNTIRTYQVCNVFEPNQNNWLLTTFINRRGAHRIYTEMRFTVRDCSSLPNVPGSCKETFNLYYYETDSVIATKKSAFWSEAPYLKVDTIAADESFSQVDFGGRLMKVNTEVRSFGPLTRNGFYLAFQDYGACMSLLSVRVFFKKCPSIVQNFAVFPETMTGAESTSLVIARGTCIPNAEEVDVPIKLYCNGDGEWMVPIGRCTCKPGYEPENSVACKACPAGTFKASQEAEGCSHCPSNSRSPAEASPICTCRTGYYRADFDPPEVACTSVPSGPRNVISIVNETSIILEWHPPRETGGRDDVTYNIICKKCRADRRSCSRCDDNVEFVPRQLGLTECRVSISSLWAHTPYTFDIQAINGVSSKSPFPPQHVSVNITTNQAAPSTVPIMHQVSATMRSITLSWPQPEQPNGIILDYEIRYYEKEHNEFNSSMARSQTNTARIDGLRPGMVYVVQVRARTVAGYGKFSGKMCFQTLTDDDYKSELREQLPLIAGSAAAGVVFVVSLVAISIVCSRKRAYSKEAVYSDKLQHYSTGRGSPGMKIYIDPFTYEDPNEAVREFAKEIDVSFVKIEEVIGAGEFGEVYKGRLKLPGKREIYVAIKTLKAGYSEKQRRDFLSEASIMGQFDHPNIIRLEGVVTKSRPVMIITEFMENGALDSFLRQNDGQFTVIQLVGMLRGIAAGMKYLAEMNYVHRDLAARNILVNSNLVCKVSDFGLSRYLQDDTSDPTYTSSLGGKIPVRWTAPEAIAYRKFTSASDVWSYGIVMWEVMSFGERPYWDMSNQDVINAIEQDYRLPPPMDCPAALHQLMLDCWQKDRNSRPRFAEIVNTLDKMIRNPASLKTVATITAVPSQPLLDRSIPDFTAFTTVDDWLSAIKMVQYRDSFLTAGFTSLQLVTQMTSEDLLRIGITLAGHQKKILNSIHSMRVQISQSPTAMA

KIT(D816H) = molecular target: T6, KIT(D816H) (Homo sapiens, UniProt P10721, D816H); assay: KINOMEscan ScanTK; format: binding
T6 construct: purchased Eurofins DiscoverX KINOMEscan (scanTK)

[2] = molecular target: T7, EGFR(L747-E749del, A750P) (Homo sapiens, UniProt P00533, A750P/DEL747-749); assay: KINOMEscan ScanTK; format: binding
T7 construct: purchased Eurofins DiscoverX KINOMEscan (scanTK)

ABL2 = molecular target: T8, ABL2 (Homo sapiens, UniProt P42684); assay: KINOMEscan ScanTK; format: binding
T8 construct: purchased Eurofins DiscoverX KINOMEscan (scanTK)

TEC = molecular target: T9, TEC (Homo sapiens, UniProt P42680); assay: KINOMEscan ScanTK; format: binding
T9 construct: purchased Eurofins DiscoverX KINOMEscan (scanTK)
T9 sequence (P42680 1-631): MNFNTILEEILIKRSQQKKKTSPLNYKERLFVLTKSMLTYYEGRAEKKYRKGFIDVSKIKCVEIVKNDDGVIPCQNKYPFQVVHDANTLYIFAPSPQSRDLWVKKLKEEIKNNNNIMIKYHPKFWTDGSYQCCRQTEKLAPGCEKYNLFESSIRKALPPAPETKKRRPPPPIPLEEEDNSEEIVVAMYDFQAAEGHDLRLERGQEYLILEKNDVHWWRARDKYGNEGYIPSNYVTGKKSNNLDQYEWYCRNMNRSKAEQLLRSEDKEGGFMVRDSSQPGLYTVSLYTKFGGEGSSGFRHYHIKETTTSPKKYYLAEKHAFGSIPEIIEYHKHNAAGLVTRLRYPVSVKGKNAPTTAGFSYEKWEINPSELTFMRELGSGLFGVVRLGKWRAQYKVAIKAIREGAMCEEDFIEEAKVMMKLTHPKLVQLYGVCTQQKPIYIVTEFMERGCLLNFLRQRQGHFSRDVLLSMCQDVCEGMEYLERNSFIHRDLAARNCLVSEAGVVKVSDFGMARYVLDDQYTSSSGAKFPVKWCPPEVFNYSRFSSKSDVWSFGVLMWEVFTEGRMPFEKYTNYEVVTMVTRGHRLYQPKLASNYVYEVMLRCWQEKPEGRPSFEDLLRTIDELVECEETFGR

RET = molecular target: T10, RET (Homo sapiens, UniProt P07949); assay: KINOMEscan ScanTK; format: binding
T10 construct: purchased Eurofins DiscoverX KINOMEscan (scanTK)

BTK, full length (2–659) = BTK, full length (2–659) (Homo sapiens, UniProt Q06187); assay: Kinact/Ki determination, PhosphoSens progress curve analysis; format: biochemical
Procedure: Nonlinear regression was performed using the Solver algorithm in Excel. […] Two-step Kinact/Ki fits were extracted from the progress curve analysis of all compounds against BTK, enabling independent Kinact and Ki determinations.

MET = molecular target: T11, MET (Homo sapiens, UniProt P08581); assay: KINOMEscan ScanTK; format: binding
T11 construct: purchased Eurofins DiscoverX KINOMEscan (scanTK)

[3] = molecular target: T12, ABL1(Q252H)-phosphorylated (Homo sapiens, UniProt P00519, Q252H); assay: KINOMEscan ScanTK; format: binding; settings: for difference in %Control versus reference Ib at 1 µM: read-out: % difference (compound - Ib %Control)
T12 construct: purchased Eurofins DiscoverX KINOMEscan (scanTK)

T3 sequence (Q08345 19-913): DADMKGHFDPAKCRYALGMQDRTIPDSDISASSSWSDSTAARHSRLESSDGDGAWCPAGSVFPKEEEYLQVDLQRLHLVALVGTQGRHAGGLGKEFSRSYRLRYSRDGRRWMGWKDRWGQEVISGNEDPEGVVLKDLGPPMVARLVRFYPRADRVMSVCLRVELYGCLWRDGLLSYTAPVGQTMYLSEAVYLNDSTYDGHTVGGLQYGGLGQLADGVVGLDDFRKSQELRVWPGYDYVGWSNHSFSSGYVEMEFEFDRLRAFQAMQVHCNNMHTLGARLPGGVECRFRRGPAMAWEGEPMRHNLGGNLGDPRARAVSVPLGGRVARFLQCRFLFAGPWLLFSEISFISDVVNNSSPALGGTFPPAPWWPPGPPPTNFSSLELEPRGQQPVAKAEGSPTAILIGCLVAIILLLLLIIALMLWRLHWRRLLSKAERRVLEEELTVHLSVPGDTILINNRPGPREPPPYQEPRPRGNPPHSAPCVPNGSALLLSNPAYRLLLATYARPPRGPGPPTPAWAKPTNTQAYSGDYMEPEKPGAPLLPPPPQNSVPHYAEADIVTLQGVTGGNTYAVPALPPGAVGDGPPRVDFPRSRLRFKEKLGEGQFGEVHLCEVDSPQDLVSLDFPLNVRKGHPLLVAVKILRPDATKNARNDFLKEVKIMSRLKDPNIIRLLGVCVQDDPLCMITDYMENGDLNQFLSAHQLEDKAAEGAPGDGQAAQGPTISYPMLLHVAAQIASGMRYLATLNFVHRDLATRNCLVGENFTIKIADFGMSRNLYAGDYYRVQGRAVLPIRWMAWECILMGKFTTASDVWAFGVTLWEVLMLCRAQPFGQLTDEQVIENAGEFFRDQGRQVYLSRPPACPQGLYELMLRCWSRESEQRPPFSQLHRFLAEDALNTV
T4 sequence (P29597 575-869 limits assumed): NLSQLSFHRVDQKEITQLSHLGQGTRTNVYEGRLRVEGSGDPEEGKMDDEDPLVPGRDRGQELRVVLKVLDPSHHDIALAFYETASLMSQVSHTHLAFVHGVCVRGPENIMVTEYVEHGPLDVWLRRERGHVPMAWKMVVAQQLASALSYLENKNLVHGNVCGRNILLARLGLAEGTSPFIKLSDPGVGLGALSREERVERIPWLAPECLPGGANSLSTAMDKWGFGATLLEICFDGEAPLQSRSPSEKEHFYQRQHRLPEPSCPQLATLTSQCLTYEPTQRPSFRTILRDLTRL
T1 sequence (P09619 33-1106): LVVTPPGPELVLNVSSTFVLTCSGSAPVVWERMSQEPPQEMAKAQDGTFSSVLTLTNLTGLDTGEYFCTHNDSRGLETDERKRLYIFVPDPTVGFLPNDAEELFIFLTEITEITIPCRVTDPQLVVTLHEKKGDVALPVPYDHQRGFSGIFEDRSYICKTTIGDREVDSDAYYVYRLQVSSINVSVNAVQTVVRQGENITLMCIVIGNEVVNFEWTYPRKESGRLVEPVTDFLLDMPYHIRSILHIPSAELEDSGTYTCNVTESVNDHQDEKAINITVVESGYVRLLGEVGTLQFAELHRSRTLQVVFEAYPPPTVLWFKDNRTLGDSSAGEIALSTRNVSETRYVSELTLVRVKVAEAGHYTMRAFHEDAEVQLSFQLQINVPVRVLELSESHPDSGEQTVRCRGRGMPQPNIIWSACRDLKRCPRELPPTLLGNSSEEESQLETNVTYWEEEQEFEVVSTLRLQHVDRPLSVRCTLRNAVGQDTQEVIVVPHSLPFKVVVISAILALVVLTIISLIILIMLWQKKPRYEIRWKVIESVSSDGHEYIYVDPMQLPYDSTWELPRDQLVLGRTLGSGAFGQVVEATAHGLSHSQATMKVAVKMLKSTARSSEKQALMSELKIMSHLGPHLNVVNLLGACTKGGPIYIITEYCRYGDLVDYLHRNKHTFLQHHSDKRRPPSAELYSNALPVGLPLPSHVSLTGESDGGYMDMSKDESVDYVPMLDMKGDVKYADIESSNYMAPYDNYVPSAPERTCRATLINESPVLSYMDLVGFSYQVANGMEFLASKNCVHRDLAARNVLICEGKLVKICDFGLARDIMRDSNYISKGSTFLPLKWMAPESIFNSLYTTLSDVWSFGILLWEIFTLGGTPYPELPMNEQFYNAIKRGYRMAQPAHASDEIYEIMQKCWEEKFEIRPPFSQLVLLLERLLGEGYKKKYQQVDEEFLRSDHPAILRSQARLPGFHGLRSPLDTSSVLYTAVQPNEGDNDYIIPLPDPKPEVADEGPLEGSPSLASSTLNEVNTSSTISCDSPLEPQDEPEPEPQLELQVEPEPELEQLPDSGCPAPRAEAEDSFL
T8 sequence (P42684 whole entry): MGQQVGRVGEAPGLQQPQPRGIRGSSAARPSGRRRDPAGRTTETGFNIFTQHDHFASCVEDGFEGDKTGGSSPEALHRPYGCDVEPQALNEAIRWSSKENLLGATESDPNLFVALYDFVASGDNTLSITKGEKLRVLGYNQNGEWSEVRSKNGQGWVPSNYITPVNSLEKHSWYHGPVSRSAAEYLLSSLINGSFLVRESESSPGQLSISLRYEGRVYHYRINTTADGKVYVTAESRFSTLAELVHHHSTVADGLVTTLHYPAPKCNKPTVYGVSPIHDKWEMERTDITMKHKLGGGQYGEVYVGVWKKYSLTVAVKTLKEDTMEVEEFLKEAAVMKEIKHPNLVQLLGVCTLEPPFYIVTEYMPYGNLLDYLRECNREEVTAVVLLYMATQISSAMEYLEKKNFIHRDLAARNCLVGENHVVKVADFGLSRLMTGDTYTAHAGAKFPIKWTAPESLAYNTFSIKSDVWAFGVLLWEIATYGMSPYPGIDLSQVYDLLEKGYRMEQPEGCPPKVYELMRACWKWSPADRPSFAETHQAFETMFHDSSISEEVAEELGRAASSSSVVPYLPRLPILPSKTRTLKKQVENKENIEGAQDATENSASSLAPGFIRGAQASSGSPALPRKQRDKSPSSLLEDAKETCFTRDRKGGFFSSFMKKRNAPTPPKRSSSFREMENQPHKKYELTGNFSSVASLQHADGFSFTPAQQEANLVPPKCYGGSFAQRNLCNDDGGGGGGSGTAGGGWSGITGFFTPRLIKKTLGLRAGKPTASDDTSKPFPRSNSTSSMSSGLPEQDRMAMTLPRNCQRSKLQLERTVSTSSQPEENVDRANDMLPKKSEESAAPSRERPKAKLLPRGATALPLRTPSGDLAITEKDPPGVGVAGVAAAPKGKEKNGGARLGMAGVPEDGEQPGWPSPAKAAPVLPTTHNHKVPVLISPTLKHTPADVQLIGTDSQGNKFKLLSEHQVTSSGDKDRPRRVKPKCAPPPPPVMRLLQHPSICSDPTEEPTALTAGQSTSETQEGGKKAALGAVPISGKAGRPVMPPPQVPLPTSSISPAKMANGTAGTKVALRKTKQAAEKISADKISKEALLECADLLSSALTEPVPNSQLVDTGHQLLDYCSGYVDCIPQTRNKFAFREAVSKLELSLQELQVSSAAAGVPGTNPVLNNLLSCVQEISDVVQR
T6 sequence (P10721 26-976 D816H): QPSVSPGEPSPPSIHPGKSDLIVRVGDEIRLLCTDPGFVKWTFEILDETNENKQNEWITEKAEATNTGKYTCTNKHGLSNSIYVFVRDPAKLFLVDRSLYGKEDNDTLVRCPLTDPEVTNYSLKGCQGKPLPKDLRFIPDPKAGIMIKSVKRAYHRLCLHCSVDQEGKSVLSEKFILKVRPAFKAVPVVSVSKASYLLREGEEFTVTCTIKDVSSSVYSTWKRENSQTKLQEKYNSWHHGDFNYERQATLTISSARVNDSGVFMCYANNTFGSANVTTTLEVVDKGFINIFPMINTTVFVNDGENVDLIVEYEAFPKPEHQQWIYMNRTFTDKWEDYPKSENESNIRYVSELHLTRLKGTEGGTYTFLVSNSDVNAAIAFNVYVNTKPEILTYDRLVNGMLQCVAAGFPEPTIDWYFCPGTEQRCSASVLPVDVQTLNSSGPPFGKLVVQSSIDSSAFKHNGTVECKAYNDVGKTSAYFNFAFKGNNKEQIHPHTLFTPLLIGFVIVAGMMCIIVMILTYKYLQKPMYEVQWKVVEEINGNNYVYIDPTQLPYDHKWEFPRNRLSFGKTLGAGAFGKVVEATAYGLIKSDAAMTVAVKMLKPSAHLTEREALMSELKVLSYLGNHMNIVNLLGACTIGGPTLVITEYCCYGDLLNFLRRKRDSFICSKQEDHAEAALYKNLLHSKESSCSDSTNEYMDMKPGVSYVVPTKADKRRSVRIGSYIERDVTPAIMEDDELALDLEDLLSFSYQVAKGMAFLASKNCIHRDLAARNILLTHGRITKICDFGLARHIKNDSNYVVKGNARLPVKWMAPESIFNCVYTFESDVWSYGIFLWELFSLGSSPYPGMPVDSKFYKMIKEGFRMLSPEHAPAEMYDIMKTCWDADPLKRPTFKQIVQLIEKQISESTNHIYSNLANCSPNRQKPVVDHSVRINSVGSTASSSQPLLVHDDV
Chain of BTK, full length (2–659) (Q06187 2-659): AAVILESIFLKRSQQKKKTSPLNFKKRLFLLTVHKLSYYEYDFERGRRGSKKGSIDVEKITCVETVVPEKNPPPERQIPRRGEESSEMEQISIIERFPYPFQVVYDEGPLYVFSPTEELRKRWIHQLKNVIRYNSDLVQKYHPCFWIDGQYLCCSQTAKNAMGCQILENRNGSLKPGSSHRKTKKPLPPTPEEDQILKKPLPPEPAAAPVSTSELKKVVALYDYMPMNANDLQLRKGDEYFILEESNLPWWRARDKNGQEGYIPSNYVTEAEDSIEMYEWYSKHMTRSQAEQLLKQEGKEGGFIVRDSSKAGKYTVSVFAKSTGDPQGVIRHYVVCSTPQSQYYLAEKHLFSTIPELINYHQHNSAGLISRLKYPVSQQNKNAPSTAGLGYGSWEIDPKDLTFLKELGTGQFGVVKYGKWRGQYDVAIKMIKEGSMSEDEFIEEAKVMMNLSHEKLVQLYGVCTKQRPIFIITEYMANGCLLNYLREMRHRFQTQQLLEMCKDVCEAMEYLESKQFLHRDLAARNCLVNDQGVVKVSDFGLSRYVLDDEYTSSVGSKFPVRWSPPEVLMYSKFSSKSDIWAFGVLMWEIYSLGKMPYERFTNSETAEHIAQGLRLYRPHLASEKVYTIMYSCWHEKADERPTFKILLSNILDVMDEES

SMILES	remaining binding at 1 µM (PDGFRB; @1000nM, read-out: %Control)	remaining binding at 1 µM (PDGFRB; read-out: %Control @1000nM)	difference in %Control vs reference Ib at 1 µM (BLK; @1000nM)	remaining binding at 1 µM (BLK; @1000nM, read-out: %Control)	remaining binding at 1 µM (BLK; read-out: %Control @1000nM)	difference in %Control from compound Ib at 1 µM (DDR1; @1000nM)	remaining binding at 1 µM (DDR1; @1000nM, read-out: %Control)	remaining binding at 1 µM (DDR1; read-out: %Control @1000nM)	difference in %Control versus Ib at 1 µM ([1]; @1000nM)	remaining binding at 1 µM ([1]; @1000nM, read-out: %Control)	remaining binding at 1 µM ([1]; read-out: %Control @1000nM)	difference in % of control versus compound Ib at 1 µM (EPHB1; @1000nM)	remaining binding at 1 µM (EPHB1; @1000nM, read-out: %Control)	remaining binding at 1 µM (EPHB1; read-out: %Control @1000nM)	remaining binding at 1 µM (KIT(D816H); @1000nM, read-out: %Control)	remaining binding at 1 µM (KIT(D816H); read-out: %Control @1000nM)	difference in %Control versus compound Ib at 1 µM ([2]; @1000nM)	remaining binding at 1 µM ([2]; @1000nM, read-out: %Control)	remaining binding at 1 µM ([2]; read-out: %Control @1000nM)	difference in %Control from reference compound Ib at 1 µM (ABL2; @1000nM)	further results
CNC(=O)c1cnc(S(C)(=O)=O)nc1N1CCCC(n2nc(-c3ccc(Oc4ccccc4)cc3)c3c(N)ncnc32)C1 (stereo not drawn) [Compound 8d, 4-(3-(4-Amino-3-(4-phenoxyphenyl)-1H-pyrazolo[3,4-d]pyrimidin-1-yl)piperidin-1-yl)-N-methyl-2-(methylsulfonyl)pyrimidine-5-carboxamide]	77%	77%	-0.05%	0%	0%	-14%	64%	64%	8%	96%	96%	1%	91%	91%	50%	50%	48.9%	52%	52%	48%	remaining binding at 1 µM (ABL2; @1000nM, read-out: %Control): 89%; remaining binding at 1 µM (ABL2; read-out: %Control @1000nM): 89%; remaining binding at 1 µM (TEC; @1000nM, read-out: %Control): 40%; remaining binding at 1 µM (TEC; read-out: %Control @1000nM): 40%; remaining binding at 1 µM (RET; @1000nM, read-out: %Control): 31%; remaining binding at 1 µM (RET; read-out: %Control @1000nM): 31%; kinact/KI (BTK, full length (2–659)): 2.49e+06 M⁻¹ s⁻¹; Ki (BTK, full length (2–659); BTK): 5.07 ± 0.36 nM; fold reduction of Kinact/Ki (potency) relative to 1g (BTK, full length (2–659); BTK): 3 fold; kinact (BTK, full length (2–659); BTK): 0.0126 ± 0.00067 s⁻¹; remaining binding at 1 µM (MET; @1000nM, read-out: %Control): 100%; remaining binding at 1 µM (MET; read-out: %Control @1000nM): 100%; difference in %Control versus reference Ib at 1 µM ([3]; @1000nM): -1%; remaining binding at 1 µM ([3]; @1000nM, read-out: %Control): 93%; remaining binding at 1 µM ([3]; read-out: %Control @1000nM): 93%
CCOC(=O)c1cnc(S(C)(=O)=O)nc1N1CCC[C@@H](n2nc(-c3ccc(Oc4ccccc4)cc3)c3c(N)ncnc32)C1 [Compound 8c, Ethyl (R)-4-(3-(4-Amino-3-(4-phenoxyphenyl)-1H-pyrazolo[3,4-d]pyrimidin-1-yl)piperidin-1-yl)-2-(methylsulfonyl)pyrimidine-5-carboxylate]	87%	87%	0.15%	0.2%	0.2%	-14%	64%	64%	12%	100%	100%	1%	91%	91%	55%	55%	63.9%	67%	67%	57%	remaining binding at 1 µM (ABL2; @1000nM, read-out: %Control): 98%; remaining binding at 1 µM (ABL2; read-out: %Control @1000nM): 98%; remaining binding at 1 µM (TEC; @1000nM, read-out: %Control): 53%; remaining binding at 1 µM (TEC; read-out: %Control @1000nM): 53%; remaining binding at 1 µM (RET; @1000nM, read-out: %Control): 84%; remaining binding at 1 µM (RET; read-out: %Control @1000nM): 84%; remaining binding at 1 µM (MET; @1000nM, read-out: %Control): 100%; remaining binding at 1 µM (MET; read-out: %Control @1000nM): 100%; difference in %Control versus reference Ib at 1 µM ([3]; @1000nM): -2%; remaining binding at 1 µM ([3]; @1000nM, read-out: %Control): 92%; remaining binding at 1 µM ([3]; read-out: %Control @1000nM): 92%
